ChEMBL document CHEMBL1201862, “PubChem BioAssay data set” (2004)
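Protocol summary: plate cells (96-well), add compound at 5 concentrations, incubate 48 h, interpolate endpoints linearly. GI50 = concentration required for 50% inhibition of growth.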 The source made the active and inactive calls. No stated cut-off is given here; in the data, active = GI50 up to about 1.1 µM and inactive = higher.

Key:
Assay in all cases: DTP human tumour cell line panel, 48 h
[1] = test system: RXF 393
[2] = test system: UACC-62
[3] = test system: SK-OV-3
[4] = test system: M14
[5] = test system: HCT-116
[6] = test system: OVCAR-4
[7] = test system: ACHN
[8] = test system: U-251
[9] = test system: IGROV-1
[10] = test system: SW-620
[11] = test system: HCT-15
[12] = test system: HOP-92
[13] = test system: K562
[14] = test system: DMS-114
[15] = test system: Malme-3M
[16] = test system: NCI-H23
[17] = test system: NCI-H226
[18] = test system: HCC 2998

Row | SMILES | GI50 [1] | GI50 [2] | GI50 [3] | GI50 [4] | GI50 [5] | GI50 [6] | GI50 [7] | GI50 [8] | GI50 [9] | GI50 [10] | GI50 [11] | GI50 [12] | GI50 [13] | GI50 [14] | GI50 [15] | GI50 [16] | GI50 [17] | GI50 [18]
1 | COC(=O)C[C@H]1CCC2(OCCO2)[C@]1(C)C(=O)OC | > 100 µM (inactive) | > 100 µM (inactive) | > 100 µM (inactive) | > 100 µM (inactive) | > 100 µM (inactive) | > 100 µM (inactive) | > 100 µM (inactive) | > 100 µM (inactive) | > 100 µM (inactive) | > 100 µM (inactive) | > 100 µM | > 100 µM (inactive) | > 100 µM (inactive) | > 100 µM (inactive) | > 100 µM (inactive) | > 100 µM (inactive) |  | 
2 | CN(C)CCC(=O)/C=C\c1ccccc1 | 15.6 µM (inactive) | 17.4 µM (inactive) |  | 16.7 µM (inactive) | 15.3 µM (inactive) | 19.1 µM (inactive) | 18.2 µM (inactive) | 17.5 µM (inactive) | 24.5 µM (inactive) | 18.5 µM (inactive) | 16.1 µM | 16.6 µM (inactive) | 13.2 µM (inactive) | 18.2 µM (inactive) | 17.1 µM (inactive) |  | 23 µM (inactive) | 
3 | CC(C)(CN1CCCCC1)C(=O)/C=C/c1ccc(Br)cc1 | 1.35 µM (inactive) | 6.56 µM (inactive) | 3.04 µM (inactive) | 2.29 µM (inactive) | 2.77 µM (inactive) | 4.31 µM (inactive) | 3.4 µM (inactive) | 2.65 µM (inactive) | 2.79 µM (inactive) | 2.56 µM (inactive) |  | 0.875 µM (active) | 2.59 µM (inactive) | 1.47 µM (inactive) | 5.74 µM (inactive) | 2.77 µM (inactive) | 5.78 µM (inactive) | 16.5 µM (inactive)
4 | COc1ccc(NC(=O)/C(Cc2nc3ccccc3nc2O)=N\O)c(OC)c1 | > 100 µM (inactive) | > 100 µM (inactive) | > 100 µM (inactive) | > 100 µM (inactive) | > 100 µM (inactive) | > 100 µM (inactive) | > 100 µM (inactive) | > 100 µM (inactive) | > 100 µM (inactive) | > 100 µM (inactive) | > 100 µM | > 100 µM (inactive) | > 100 µM (inactive) | > 100 µM (inactive) | > 100 µM (inactive) | > 100 µM (inactive) | > 100 µM (inactive) | > 100 µM (inactive)
5 | COc1ccc([C@@H]2CC(=O)NCCCCNCCCN2)cc1 | > 100 µM (inactive) | > 100 µM (inactive) | > 100 µM (inactive) | > 100 µM (inactive) | > 100 µM (inactive) | > 100 µM (inactive) | > 100 µM (inactive) | > 100 µM (inactive) | > 100 µM (inactive) | > 100 µM (inactive) | > 100 µM | > 100 µM (inactive) | > 100 µM (inactive) | > 100 µM (inactive) | > 100 µM (inactive) | > 100 µM (inactive) | > 100 µM (inactive) | 0.0131 µM (active)
6 | CCN(CC)CCCCC1CCN(CC(=O)N2c3ccccc3NC(=O)CC2C)CC1 (centres undefined) | 76.7 µM (inactive) | > 100 µM (inactive) | > 100 µM (inactive) | > 100 µM (inactive) | > 100 µM (inactive) | > 100 µM (inactive) | > 100 µM (inactive) | > 100 µM (inactive) | > 100 µM (inactive) | > 100 µM (inactive) | > 100 µM | > 100 µM (inactive) | > 100 µM (inactive) | 69 µM (inactive) | > 100 µM (inactive) | > 100 µM (inactive) | > 100 µM (inactive) | > 100 µM (inactive)
7 | CCCCCCCCCCCCCC(=O)OCC1OC(n2cc(F)c(=O)[nH]c2=O)C(N)C(OC(=O)CCCCCCCCCCCCC)C1O (centres undefined) | > 100 µM (inactive) | > 100 µM (inactive) | > 100 µM (inactive) | > 100 µM (inactive) | > 100 µM (inactive) | > 100 µM (inactive) | > 100 µM (inactive) | > 100 µM (inactive) |  | > 100 µM (inactive) | > 100 µM | > 100 µM (inactive) | > 100 µM (inactive) | > 100 µM (inactive) | > 100 µM (inactive) | > 100 µM (inactive) |  | > 100 µM (inactive)
8 | CC1=NN(C(=O)CC(=O)N(C(=O)c2ccccc2Cl)c2ccc(C)cc2)C(=O)C1/N=N/c1ccc([N+](=O)[O-])cc1 (centres undefined) | 23.4 µM (inactive) | 21.6 µM (inactive) | 31.8 µM (inactive) | > 96.2 µM (inactive) | 17.7 µM (inactive) | 67.9 µM (inactive) | > 53.7 µM (inactive) | 19.6 µM (inactive) | 56.2 µM (inactive) | > 39.2 µM (inactive) | > 43.8 µM | 36.6 µM (inactive) | > 53.5 µM (inactive) | > 42.8 µM (inactive) | > 100 µM (inactive) | 47.3 µM (inactive) | > 76 µM (inactive) | > 100 µM (inactive)
9 | O=C(Cc1ccccc1)NN1C(=O)C(Cl)C1c1cc(Br)ccc1O (centres undefined) | 19.1 µM (inactive) | 4.15 µM (inactive) | 4.07 µM (inactive) | 4.34 µM (inactive) | 3.83 µM (inactive) | 2.21 µM (inactive) | 2.76 µM (inactive) | 3.69 µM (inactive) | 7.71 µM (inactive) | 4.11 µM (inactive) | 3.65 µM |  | 3.35 µM (inactive) | 2.23 µM (inactive) | 13.5 µM (inactive) | 4.43 µM (inactive) | 30 µM (inactive) | 9.46 µM (inactive)
10 | Cc1nc2sccn2c1C(=O)N/N=C1\SCC(=O)N1C | > 100 µM (inactive) | > 100 µM (inactive) | > 100 µM (inactive) |  | > 100 µM (inactive) |  | > 100 µM (inactive) | > 100 µM (inactive) | > 100 µM (inactive) | > 100 µM (inactive) | > 100 µM | > 100 µM (inactive) | > 100 µM (inactive) | > 100 µM (inactive) | > 100 µM (inactive) | > 100 µM (inactive) | > 100 µM (inactive) | > 100 µM (inactive)
11 | O=C1CC2CCCC23CC2(CCN13)OCCO2 (centres undefined) | > 100 µM (inactive) | > 100 µM (inactive) | > 100 µM (inactive) | > 100 µM (inactive) | > 100 µM (inactive) | > 100 µM (inactive) | > 100 µM (inactive) | > 100 µM (inactive) | > 100 µM (inactive) | > 100 µM (inactive) |  | > 100 µM (inactive) | > 100 µM (inactive) | > 100 µM (inactive) | > 100 µM (inactive) | > 100 µM (inactive) | > 100 µM (inactive) | > 100 µM (inactive)
12 | COC(=O)[C@@H](C)[C@H]1CC[C@@](C)(CCC2=C(C)CC3C=C(C)CCC3C2(C)C)OO1 (some centres undefined) | 1.37 µM (inactive) | 1.94 µM (inactive) | 2.4 µM (inactive) | 1.73 µM (inactive) | 1.69 µM (inactive) | 1.52 µM (inactive) | 1.53 µM (inactive) | 1.42 µM (inactive) | 1.42 µM (inactive) | 0.277 µM (active) | 1.31 µM |  | 1.3 µM (inactive) | 1.81 µM (inactive) | 1.91 µM (inactive) | 1.7 µM (inactive) | 2.04 µM (inactive) | 1.35 µM (inactive)
13 | O=C(O)CCCSC(=O)Nc1ccc(/N=N/c2ccccc2)cc1 | > 100 µM (inactive) | > 100 µM (inactive) |  | > 100 µM (inactive) | > 100 µM (inactive) | > 100 µM (inactive) | > 100 µM (inactive) | > 100 µM (inactive) |  | > 100 µM (inactive) | > 100 µM |  | 65.9 µM (inactive) | > 100 µM (inactive) |  | > 100 µM (inactive) | > 100 µM (inactive) | > 100 µM (inactive)
14 | CC(=O)O[C@H]1C(=O)[C@@]2(C)C(C(OC(=O)c3ccccc3)C3[C@@H](O)C(OC(=O)[C@@H](O)[C@H](NC(=O)c4ccccc4)c4ccc(C(F)(F)F)cc4)C(C)=C1C3(C)C)[C@]1(OC(C)=O)CO[C@@H]1C[C@@H]2O (some centres undefined) | 14.3 µM (inactive) | 19.2 µM (inactive) | > 25 µM (inactive) | > 25 µM (inactive) | 9.1 µM (inactive) |  | > 25 µM (inactive) | 13.3 µM (inactive) | > 25 µM (inactive) | 8 µM (inactive) | > 25 µM |  | 12.4 µM (inactive) | 11.3 µM (inactive) | > 25 µM (inactive) | > 25 µM (inactive) | > 25 µM (inactive) | 16.2 µM (inactive)
15 | COc1ccc(C(=O)C#Cc2cnc(O)nc2O)cc1 | 5.47 µM (inactive) | 12.9 µM (inactive) | 52.8 µM (inactive) | 5.85 µM (inactive) | 6.03 µM (inactive) | 16.8 µM (inactive) | 14.8 µM (inactive) | 9.29 µM (inactive) | > 42.2 µM (inactive) | 5.69 µM (inactive) | 7.83 µM | 21.4 µM (inactive) | 3.61 µM (inactive) | 18.7 µM (inactive) | 5.08 µM (inactive) | 14.6 µM (inactive) | 18.7 µM (inactive) | 18.7 µM (inactive)
16 | COc1ccc(CCc2cc(OC)cc(OC)c2)cc1 | 18 µM (inactive) | 11.9 µM (inactive) | 36.6 µM (inactive) | 25.2 µM (inactive) | 24.3 µM (inactive) | 27 µM (inactive) | 58.5 µM (inactive) | 31.6 µM (inactive) | 43 µM (inactive) | 5.93 µM (inactive) | 7.06 µM | 38.3 µM (inactive) | 3.34 µM (inactive) | 3.9 µM (inactive) | 33.7 µM (inactive) | 24.2 µM (inactive) | 30.7 µM (inactive) | 10.2 µM (inactive)
